Measured values published in patent publication US8541588B2, “Sulfonamide derivatives” (Pfizer Limited, priority 2009, dated 2013).
pIC50: −log10 of the molar value.

Molecular target: T1, Nav1.7 (or SCN9A) channel; HEK cells stably transfected with hSCN9A (Homo sapiens, UniProt Q15858)
T1 construct: expressed in transfected cells
Experiment: Nav1.7 block, PatchXpress 7000 automated whole-cell voltage clamp, estimated IC50 (EIC50)
Format: cell-based
Conditions: estimated IC50; hSCN9A HEK cells, PatchXpress platform; Examples 815-1040

T1 sequence (Q15858 whole entry): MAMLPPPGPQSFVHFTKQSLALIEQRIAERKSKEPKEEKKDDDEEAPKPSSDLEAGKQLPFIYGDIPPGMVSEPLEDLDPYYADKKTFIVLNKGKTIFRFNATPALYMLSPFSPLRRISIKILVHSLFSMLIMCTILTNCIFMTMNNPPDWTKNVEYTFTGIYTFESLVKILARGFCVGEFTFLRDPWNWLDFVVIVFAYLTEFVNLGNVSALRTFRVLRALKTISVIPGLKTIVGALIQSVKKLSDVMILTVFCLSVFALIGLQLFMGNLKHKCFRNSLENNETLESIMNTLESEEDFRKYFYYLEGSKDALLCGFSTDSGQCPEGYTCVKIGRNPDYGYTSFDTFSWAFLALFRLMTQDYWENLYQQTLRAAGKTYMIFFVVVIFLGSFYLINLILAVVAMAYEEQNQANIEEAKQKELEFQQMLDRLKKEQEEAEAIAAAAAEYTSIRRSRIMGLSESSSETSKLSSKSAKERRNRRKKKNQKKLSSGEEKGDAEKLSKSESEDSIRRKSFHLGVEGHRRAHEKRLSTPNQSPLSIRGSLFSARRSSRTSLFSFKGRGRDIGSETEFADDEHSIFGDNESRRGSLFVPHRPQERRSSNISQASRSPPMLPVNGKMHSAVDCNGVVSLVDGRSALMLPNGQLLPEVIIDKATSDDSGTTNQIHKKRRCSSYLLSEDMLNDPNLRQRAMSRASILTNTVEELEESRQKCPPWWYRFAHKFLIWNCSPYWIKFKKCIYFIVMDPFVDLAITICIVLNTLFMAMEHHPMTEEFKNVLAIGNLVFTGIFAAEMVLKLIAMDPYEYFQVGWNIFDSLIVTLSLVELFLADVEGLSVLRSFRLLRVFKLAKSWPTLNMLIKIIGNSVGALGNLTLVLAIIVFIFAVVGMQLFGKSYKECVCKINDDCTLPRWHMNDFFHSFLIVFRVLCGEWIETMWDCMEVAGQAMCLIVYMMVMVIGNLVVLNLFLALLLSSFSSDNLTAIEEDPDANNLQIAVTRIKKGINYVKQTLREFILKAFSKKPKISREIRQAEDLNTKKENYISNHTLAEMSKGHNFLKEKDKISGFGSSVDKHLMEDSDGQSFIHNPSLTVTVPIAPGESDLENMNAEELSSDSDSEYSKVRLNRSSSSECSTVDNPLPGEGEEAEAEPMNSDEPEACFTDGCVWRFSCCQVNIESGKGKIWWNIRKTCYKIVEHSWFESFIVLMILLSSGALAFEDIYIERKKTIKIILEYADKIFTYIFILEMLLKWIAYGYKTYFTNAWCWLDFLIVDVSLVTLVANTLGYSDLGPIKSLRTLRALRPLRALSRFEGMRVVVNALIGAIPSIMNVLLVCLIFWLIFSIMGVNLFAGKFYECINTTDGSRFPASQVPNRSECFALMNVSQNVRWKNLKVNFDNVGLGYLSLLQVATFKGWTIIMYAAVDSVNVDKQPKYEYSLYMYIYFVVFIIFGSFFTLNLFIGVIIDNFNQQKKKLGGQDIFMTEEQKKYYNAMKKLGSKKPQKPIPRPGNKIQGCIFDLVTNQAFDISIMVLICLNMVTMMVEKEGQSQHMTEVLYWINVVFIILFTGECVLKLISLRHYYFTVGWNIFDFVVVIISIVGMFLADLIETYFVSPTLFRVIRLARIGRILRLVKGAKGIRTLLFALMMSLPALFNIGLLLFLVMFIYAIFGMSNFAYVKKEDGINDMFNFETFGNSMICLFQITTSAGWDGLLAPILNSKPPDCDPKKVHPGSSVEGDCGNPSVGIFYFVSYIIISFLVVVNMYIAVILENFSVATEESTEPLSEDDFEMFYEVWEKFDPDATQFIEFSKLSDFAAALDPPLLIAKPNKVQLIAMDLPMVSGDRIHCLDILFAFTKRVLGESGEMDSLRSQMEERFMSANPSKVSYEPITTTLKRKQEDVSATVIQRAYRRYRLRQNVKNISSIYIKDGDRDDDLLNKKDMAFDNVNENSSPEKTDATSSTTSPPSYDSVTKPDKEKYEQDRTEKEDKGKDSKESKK

Row | SMILES | pIC50 | IC50
1 | O=S(=O)(Nc1ncns1)c1cc(F)c(Oc2ccc(Cl)cc2-c2ccnnc2)cc1F [Example 879, 4-(4-chloro-2-pyridazin-4-ylphenoxy)-2,5-difluoro-N-1,2,4-thiadiazol-5-ylbenzenesulfonamide] | 8.15 | –
2 | N#Cc1cc(S(=O)(=O)Nc2ncns2)ccc1Oc1ccc(Cl)cc1-c1ccon1 [Example 880, 4-(4-chloro-2-isoxazol-3-ylphenoxy)-3-cyano-N-1,2,4-thiadiazol-5-ylbenzenesulfonamide] | 6.96 | –
3 | Cn1nccc1-c1cc(Cl)ccc1Oc1ccc(S(=O)(=O)Nc2ncccn2)cc1C#N [Example 881, 4-[4-chloro-2-(1-methyl-1H-pyrazol-5-yl)phenoxy]-3-cyano-N-pyrimidin-2-ylbenzenesulfonamide] | 6.59 | –
4 | N#Cc1cc(S(=O)(=O)Nc2ncns2)ccc1Oc1ccc(Cl)cc1-c1ccnn1C1CCOC1 (centres unmarked) [Example 882, 4-{4-chloro-2-[1-(tetrahydrofuran-3-yl)-1H-pyrazol-5-yl]phenoxy}-3-cyano-N-1,2,4-thiadiazol-5-ylbenzenesulfonamide] | 7.40 | –
5 | Cc1cc(NS(=O)(=O)c2ccc(Oc3ccc(Cl)cc3-c3ccnn3C)c(C#N)c2)no1 [Example 883, 4-[4-chloro-2-(1-methyl-1H-pyrazol-5-yl)phenoxy]-3-cyano-N-(5-methylisoxazol-3-yl)benzenesulfonamide] | 4.85 | –
6 | CN1CC(n2nccc2-c2cc(Cl)ccc2Oc2cc(F)c(S(=O)(=O)Nc3nncs3)cc2Cl)C1 [Example 884, 5-chloro-4-{4-chloro-2-[1-(1-methylazetidin-3-yl)-1H-pyrazol-5-yl]phenoxy}-2-fluoro-N-1,3,4-thiadiazol-2-ylbenzenesulfonamide] | 7.44 | –
7 | Cn1nccc1-c1cc(Cl)ccc1Oc1ccc(S(=O)(=O)Nc2cnccn2)cc1C#N [Example 885, 4-[4-chloro-2-(1-methyl-1H-pyrazol-5-yl)phenoxy]-3-cyano-N-pyrazin-2-ylbenzenesulfonamide] | 5.20 | –
8 | CCOc1nnc(NS(=O)(=O)c2ccc(Oc3ccc(Cl)cc3-c3ccnn3C)c(C#N)c2)s1 [Example 886, 4-[4-chloro-2-(1-methyl-1H-pyrazol-5-yl)phenoxy]-3-cyano-N-(5-ethoxy-1,3,4-thiadiazol-2-yl)benzenesulfonamide] | 5.21 | –
9 | Cn1ccc(NS(=O)(=O)c2ccc(Oc3ccc(Cl)cc3-c3ccnn3C)c(C#N)c2)n1 [Example 887, 4-[4-chloro-2-(1-methyl-1H-pyrazol-5-yl)phenoxy]-3-cyano-N-(1-methyl-1H-pyrazol-3-yl)benzenesulfonamide] | 5.05 | –
10 | Cc1nnc(NS(=O)(=O)c2ccc(Oc3ccc(Cl)cc3-c3ccnn3C)c(C#N)c2)s1 [Example 888, 4-[4-chloro-2-(1-methyl-1H-pyrazol-5-yl)phenoxy]-3-cyano-N-(5-methyl-1,3,4-thiadiazol-2-yl)benzenesulfonamide] | 6.04 | –
11 | N#Cc1cc(S(=O)(=O)Nc2ncns2)ccc1Oc1ccc(F)cc1-c1cocn1 [Example 889, 3-cyano-4-[4-fluoro-2-(1,3-oxazol-4-yl)phenoxy]-N-1,2,4-thiadiazol-5-ylbenzenesulfonamide] | 6.17 | –
12 | CSc1nnc(NS(=O)(=O)c2ccc(Oc3ccc(Cl)cc3-c3ccnn3C)c(C#N)c2)s1 [Example 891, 4-[4-chloro-2-(1-methyl-1H-pyrazol-5-yl)phenoxy]-3-cyano-N-[5-(methylthio)-1,3,4-thiadiazol-2-yl]benzenesulfonamide] | 6.11 | –
13 | Cc1cnc(NS(=O)(=O)c2ccc(Oc3ccc(Cl)cc3-c3ccnn3C)c(C#N)c2)cn1 [Example 892, 4-[4-chloro-2-(1-methyl-1H-pyrazol-5-yl)phenoxy]-3-cyano-N-(5-methylpyrazin-2-yl)benzenesulfonamide] | – | >10000 nM
14 | CSc1nc(NS(=O)(=O)c2ccc(Oc3ccc(Cl)cc3-c3ccnn3C)c(C#N)c2)ns1 [Example 893, 4-[4-chloro-2-(1-methyl-1H-pyrazol-5-yl)phenoxy]-3-cyano-N-[5-(methylthio)-1,2,4-thiadiazol-3-yl]benzenesulfonamide] | 5.42 | –
15 | Cn1nccc1NS(=O)(=O)c1ccc(Oc2ccc(Cl)cc2-c2ccnn2C)c(C#N)c1 [Example 894, 4-[4-chloro-2-(1-methyl-1H-pyrazol-5-yl)phenoxy]-3-cyano-N-(1-methyl-1H-pyrazol-5-yl)benzenesulfonamide] | – | >10000 nM
16 | Cn1nccc1-c1cc(Cl)ccc1Oc1ccc(S(=O)(=O)Nc2cncnc2)cc1C#N [Example 895, 4-[4-chloro-2-(1-methyl-1H-pyrazol-5-yl)phenoxy]-3-cyano-N-pyrimidin-5-ylbenzenesulfonamide] | – | >30000 nM
17 | N#Cc1cc(S(=O)(=O)Nc2ncns2)ccc1Oc1ccc(Cl)cc1-c1cc(N2CCOCC2)ncn1 [Example 896, 4-[4-chloro-2-(6-morpholin-4-ylpyrimidin-4-yl)phenoxy]-3-cyano-N-1,2,4-thiadiazol-5-ylbenzenesulfonamide] | 6.47 | –
18 | O=S(=O)(Nc1ncns1)c1cc(F)c(Oc2ccc(OC(F)(F)F)cc2-c2ccnnc2)cc1F [Example 897, 2,5-difluoro-4-[2-pyridazin-4-yl-4-(trifluoromethoxy)phenoxy]-N-1,2,4-thiadiazol-5-ylbenzenesulfonamide] | 8.24 | –

Row | SMILES | pIC50 | IC50
19 | O=S(=O)(Nc1ncns1)c1ccc(Oc2ccc(Cl)cc2-c2ccnnc2)c(Cl)c1 [Example 898, 3-chloro-4-(4-chloro-2-pyridazin-4-ylphenoxy)-N-1,2,4-thiadiazol-5-ylbenzenesulfonamide] | 8.29 | –
20 | N#Cc1cc(S(=O)(=O)Nc2nncs2)ccc1Oc1ccc(Cl)cc1-c1ccnc(N2CCOCC2)c1 [Example 899, 4-[4-chloro-2-(2-morpholin-4-ylpyridin-4-yl)phenoxy]-3-cyano-N-1,3,4-thiadiazol-2-ylbenzenesulfonamide] | 7.74 | –
21 | O=S(=O)(Nc1ncns1)c1ccc(Oc2ccc(OC(F)(F)F)cc2-c2ccnnc2)c(Cl)c1 [Example 900, 3-chloro-4-[2-pyridazin-4-yl-4-(trifluoromethoxy)phenoxy]-N-1,2,4-thiadiazol-5-ylbenzenesulfonamide] | 8.55 | –
22 | N#Cc1cc(S(=O)(=O)Nc2ncns2)ccc1Oc1ccc(Cl)cc1-c1ccnc(NC2CCC2)c1 [Example 902, 4-{4-chloro-2-[2-(cyclobutylamino)pyridin-4-yl]phenoxy}-3-cyano-N-1,2,4-thiadiazol-5-ylbenzenesulfonamide] | 8.64 | –
23 | O=S(=O)(Nc1ncns1)c1cc(F)c(Oc2ccc(C(F)(F)F)cc2-c2ccc(Cl)nn2)cc1F [Example 904, 4-[2-(6-chloropyridazin-3-yl)-4-(trifluoromethyl)phenoxy]-2,5-difluoro-N-1,2,4-thiadiazol-5-ylbenzenesulfonamide] | 6.41 | –
24 | N#Cc1cc(S(=O)(=O)Nc2ncns2)ccc1Oc1ccc(Cl)cc1-c1ccsn1 [Example 905, 4-(4-chloro-2-isothiazol-3-ylphenoxy)-3-cyano-N-1,2,4-thiadiazol-5-ylbenzenesulfonamide] | 6.72 | –
25 | N#Cc1cc(S(=O)(=O)Nc2ncns2)ccc1Oc1ccc(Cl)cc1C1CNC1 [Example 906, 4-(2-azetidin-3-yl-4-chlorophenoxy)-3-cyano-N-1,2,4-thiadiazol-5-ylbenzenesulfonamide] | 7.24 | –
26 | Cc1nonc1NS(=O)(=O)c1ccc(Oc2ccc(Cl)cc2-c2ccnn2C)c(C#N)c1 [Example 907, 4-[4-chloro-2-(1-methyl-1H-pyrazol-5-yl)phenoxy]-3-cyano-N-(4-methyl-1,2,5-oxadiazol-3-yl)benzenesulfonamide] | – | >10000 nM
27 | Cn1cc(-c2cc(Cl)ccc2Oc2ccc(S(=O)(=O)Nc3ncns3)cc2C#N)ccc1=O [Example 908, 4-[4-chloro-2-(1-methyl-6-oxo-1,6-dihydropyridin-3-yl)phenoxy]-3-cyano-N-1,2,4-thiadiazol-5-ylbenzenesulfonamide] | 6.11 | –
28 | O=S(=O)(Nc1ncns1)c1cc(Cl)c(Oc2ccc(OC(F)(F)F)cc2-c2ccnnc2)cc1F [Example 909, 5-chloro-2-fluoro-4-[2-pyridazin-4-yl-4-(trifluoromethoxy)phenoxy]-N-1,2,4-thiadiazol-5-ylbenzenesulfonamide] | 8.68 | –
29 | O=S(=O)(Nc1ncns1)c1cc(Cl)c(Oc2ccc(Cl)cc2-c2ccnnc2)cc1F [Example 910, 5-chloro-4-(4-chloro-2-pyridazin-4-ylphenoxy)-2-fluoro-N-1,2,4-thiadiazol-5-ylbenzenesulfonamide] | 7.92 | –
30 | O=S(=O)(Nc1cscn1)c1ccc(Oc2ccc(Cl)cc2-c2ccn[nH]2)c(Cl)c1 [Example 911, 3-chloro-4-[4-chloro-2-(1H-pyrazol-5-yl)phenoxy]-N-1,3-thiazol-4-ylbenzenesulfonamide] | 6.77 | –
31 | Nc1[nH]ncc1-c1cc(Cl)ccc1Oc1ccc(S(=O)(=O)Nc2cscn2)cc1Cl [Example 912, 4-[2-(5-amino-1H-pyrazol-4-yl)-4-chlorophenoxy]-3-chloro-N-1,3-thiazol-4-ylbenzenesulfonamide] | 7.85 | –
32 | Nc1[nH]ncc1-c1cc(Cl)ccc1Oc1ccc(S(=O)(=O)Nc2ncns2)cc1Cl [Example 913, 4-[2-(5-amino-1H-pyrazol-4-yl)-4-chlorophenoxy]-3-chloro-N-1,2,4-thiadiazol-5-ylbenzenesulfonamide] | 9.05 | –
33 | Cc1cnncc1-c1cc(Cl)ccc1Oc1ccc(S(=O)(=O)Nc2ncns2)cc1C#N [Example 914, 4-[4-chloro-2-(5-methylpyridazin-4-yl)phenoxy]-3-cyano-N-1,2,4-thiadiazol-5-ylbenzenesulfonamide] | 6.74 | –
34 | Cn1nccc1-c1cc(Cl)ccc1Oc1ccc(S(=O)(=O)Nc2cccnn2)cc1C#N [Example 915, 4-[4-chloro-2-(1-methyl-1H-pyrazol-5-yl)phenoxy]-3-cyano-N-pyridazin-3-ylbenzenesulfonamide] | 5.80 | –
35 | COc1nccnc1NS(=O)(=O)c1ccc(Oc2ccc(Cl)cc2-c2ccnn2C)c(C#N)c1 [Example 916, 4-[4-chloro-2-(1-methyl-1H-pyrazol-5-yl)phenoxy]-3-cyano-N-(3-methoxypyrazin-2-yl)benzenesulfonamide] | – | >10000 nM
